Among the data in patent US20220144853A1, “IMIDAZOLINE DERIVATIVES AS CXCR4 MODULATORS” (Université de Paris, priority 2019, published 2022) are melting point values, retold here.

Where a name gives a salt, the structure may show the parent alone.

As for `C1=C(CSC2=NCCCN2)N2CCCCN=C2S1` (as salt: hydrochloride) [Example 37, 3-(((1,4,5,6-tetrahydropyrimidin-2-yl)thio)methyl)-5,6,7,8-tetrahydrothiazolo[3,2-a][1,3]diazepine dihydrochloride], the melting point – broadly, the temperature, or range, at which the solid turns liquid – was more than 250 °C.
The value for `CC1(C)CN2C(CSC3=NCC4(CCCCC4)N3)=CSC2=N1` (as salt: hydrochloride) [Example 39, 3-(((1,3-diazaspiro[4.5]dec-2-en-2-yl)thio)methyl)-6,6-dimethyl-5,6-dihydroimidazo[2,1-b]thiazole dihydrochloride] was 225 to 231 °C; that for `CC1(C)CN2C(CSC3=NCC4CCCCC4N3)=CSC2=N1` (stereo not drawn) (as salt: hydrochloride) [Example 40, 6,6-dimethyl-3-(((1,4,4a,5,6,7,8,8a-octahydroquinazolin-2-yl)thio)methyl)-5,6-dihydroimidazo[2,1-b]thiazole dihydrochloride] was 245 to 249 °C.
The same measure for `CC1(C)CN=C(SCCc2cccc3ncccc23)N1` (as salt: hydrochloride) [Example 41, 5-(2-((5,5-dimethyl-4,5-dihydro-1H-imidazol-2-yl)thio)ethyl)quinoline dihydrochloride]: 240 to 245 °C; for `CC1(C)CN=C(SCC2=CSC3=NC4(CCCCC4)CN23)N1` (as salt: hydrochloride) [Example 42, 3′-(((5,5-dimethyl-4,5-dihydro-1H-imidazol-2-yl)thio)methyl)-5′H-spiro[cyclohexane-1,6′-imidazo[2,1-b]thiazole] dihydrochloride]: 190 to 198 °C; for `CC1(C)CN=C(SCC2=CSC3=NC4CCCCC4CN23)N1` (stereo not drawn) (as salt: hydrochloride) [Example 43, 3-(((5,5-dimethyl-4,5-dihydro-1H-imidazol-2-yl)thio)methyl)-5a,6,7,8,9,9a-hexahydro-5H-thiazolo[2,3-b]quinazoline dihydrochloride]: 241 to 245 °C.
The same measure for `C1=C(CSC2=N[C@@H]3CCCC[C@H]3N2)N2CCN=C2S1` (as salt: hydrochloride) [Example 44, 3-((((3aR,7aR)-3a,4,5,6,7,7a-hexahydro-1H-benzo[d]imidazol-2-yl)thio)methyl)-5,6-dihydroimidazo[2,1-b]thiazole dihydrochloride]: 230 to 233 °C; for `C1=C(CSC2=N[C@@H]3CCCC[C@H]3N2)N2CCCN=C2S1` (as salt: hydrochloride) [Example 45, 3-((((3aR,7aR)-3a,4,5,6,7,7a-hexahydro-1H-benzo[d]imidazol-2-yl)thio)methyl)-6,7-dihydro-5H-thiazolo[3,2-a]pyrimidine dihydrochloride]: more than 250 °C.
`C1=C(CSC2=N[C@@H]3CCCC[C@H]3N2)N2CCCCN=C2S1` (as salt: hydrochloride) [Example 46, 3-((((3aR,7aR)-3a,4,5,6,7,7a-hexahydro-1H-benzo[d]imidazol-2-yl)thio)methyl)-5,6,7,8-tetrahydrothiazolo[3,2-a][1,3]diazepine dihydrochloride]: the melting point was more than 250 °C.
In turn, `C1=C(CSC2=NCC(Cc3ccccc3)N2)N2CCCN=C2S1` (stereo not drawn) (as salt: hydrochloride) [Example 48, 3-(((5-benzyl-4,5-dihydro-1H-imidazol-2-yl)thio)methyl)-6,7-dihydro-5H-thiazolo[3,2-a]pyrimidine dihydrochloride] showed a melting point of 50 to 53 °C.
With `CC(C)C1CN=C(SCC2=CSC3=NC(C)(C)CN23)N1` (stereo not drawn) (as salt: hydrochloride) [Example 49, 3-(((5-isopropyl-4,5-dihydro-1H-imidazol-2-yl)thio)methyl)-6,6-dimethyl-5,6-dihydroimidazo[2,1-b]thiazole dihydrochloride], the melting point was 234 to 237 °C.
`CC1(C)CN=C(SCC2=CSC3=NC(c4ccccc4)CN23)N1` (stereo not drawn) (as salt: hydrochloride) [Example 50, 3-(((5,5-dimethyl-4,5-dihydro-1H-imidazol-2-yl)thio)methyl)-6-phenyl-5,6-dihydroimidazo[2,1-b]thiazole dihydrochloride] yielded a melting point of 245 to 247 °C.
The value for `CCCCC1CN=C(SCC2=CSC3=NC(Cc4ccccc4)CN23)N1` (stereo not drawn) (as salt: hydrochloride) [Example 51, 6-benzyl-3-(((5-butyl-4,5-dihydro-1H-imidazol-2-yl)thio)methyl)-5,6-dihydroinidazo[2,1-b]thiazole dihydrochloride] was 150 to 154 °C; that for `CC(C)C1CN2C(CSC3=NCC(C)(C)N3)=CSC2=N1` (stereo not drawn) (as salt: hydrochloride) [Example 52, 3-(((5,5-dimethyl-4,5-dihydro-1H-imidazol-2-yl)thio)methyl)-6-isopropyl-5,6-dihydroimidazo[2,1-b]thiazole dihydrochloride] was 227 to 232 °C; that for `CC1(C)CN2C(CSC3=NCC(c4ccccc4)N3)=CSC2=N1` (stereo not drawn) (as salt: hydrochloride) [Example 53, 6,6-dimethyl-3-(((4-phenyl-4,5-dihydro-1H-imidazol-2-yl)thio)methyl)-5,6-dihydroimidazo[2,1-b]thiazole dihydrochloride] was 110 to 120 °C.
The value for `CN1CCCN=C1SCC1=CSC2=NC(C)(C)CN12` (as salt: hydrochloride) [Example 57, 6,6-dimethyl-3-(((1-methyl-1,4,5,6-tetrahydropyrimidin-2-yl)thio)methyl)-5,6-dihydroimidazo[2,1-b]thiazole dihydrochloride] was 245 to 249 °C; that for `CC(C)[C@@H]1N=C(SCC2=CSC3=NC(C)(C)CN23)N[C@H]1C(C)C` (as salt: hydrochloride) [Example 58, 3-((((4S,5S)-4,5-diisopropyl-4,5-dihydro-1H-imidazol-2-yl)thio)methyl)-6,6-dimethyl-5,6-dihydroimidazo[2,1-b]thiazole dihydrochloride] was 154 to 160 °C.
For `C1=C(CSC2=NCC(Cc3ccccc3)N2)N2CC(Cc3ccccc3)N=C2S1` (stereo not drawn) (as salt: hydrochloride) [Example 60, 6-benzyl-3-(((5-benzyl-4,5-dihydro-1H-imidazol-2-yl)thio)methyl)-5,6-dihydroimidazo[2,1-b]thiazole dihydrochloride], the melting point lay in the range of 117 to 121 °C.
The value for `C1=C(CSC2=N[C@@H]3CCCC[C@H]3N2)N2CC(Cc3ccccc3)N=C2S1` (stereo partly drawn) (as salt: hydrochloride) [Example 61, 6-benzyl-3-((((3aR,7aR)-3a,4,5,6,7,7a-hexahydro-1H-benzo[d]imidazol-2-yl)thio)methyl)-5,6-dihydroimidazo[2,1-b]thiazole dihydrochloride] was 125 to 130 °C; that for `CC1(C)CN2C(=N1)SC(I)=C2CSC1=NCC(C)(C)N1` (as salt: hydrochloride) [Example 66, 3-(((5,5-dimethyl-4,5-dihydro-1H-imidazol-2-yl)thio)methyl)-2-iodo-6,6-dimethyl-5,6-dihydroimidazo[2,1-b]thiazole dihydrochloride] was 169 to 180 °C (dec.).
Take `CC1(C)CN2C(=N1)SCC2SC1=NCC(C)(C)N1` (stereo not drawn) (as salt: hydrochloride) [Example 70, 3-((5,5-dimethyl-4,5-dihydro-1H-imidazol-2-yl)thio)-6,6-dimethyl-2,3,5,6-tetrahydroimidazo[2,1-b]thiazole dihydrochloride]: the melting point was in the range of 240 to 243 °C.
The value for `C1=C(CSC2=N[C@H]3COC[C@H]3N2)N2C(=N[C@@H]3COC[C@@H]32)S1` (mixture of isomers) (as salt: hydrochloride) [Example 36, mixture of (4aS,7aR)-3-((((3aS,6aR)-3a,4,6,6a-tetrahydro-1H-furo[3,4-d]imidazol-2-yl)thio)methyl)-4a,5,7,7a-tetrahydrofuro[3′,4′:4,5]imidazo[2,1-b]thiazole dihydrochloride and (4aR,7aS)-3-((((3aR,6aS)-3a,4,6,6a-tetrahydro-1H-furo[3,4-d]imidazol-2-yl)thio)methyl)-4a,5,7,7a-tetrahydrofuro[3′,4′: 4,5]imidazo[2,1-b]thiazole dihydrochloride] was more than 250 °C; that for `CC1(C)CN=C(SCC2=CSC3=N[C@H]4CCCC[C@@H]4N23)N1` (racemic) (as salt: hydrochloride) [Example 7, trans-3-(((4,4-dimethyl-4,5-dihydro-1H-imidazol-2-yl)thio)methyl)-4a,5,6,7,8,8a-hexahydrobenzo[4,5]imidazo[2,1-b]thiazole dihydrochloride] was 248 to 252 °C.
On to `CC1(C)CN=C(SCC2=CSC3=N[C@H]4CCCC[C@H]4N23)N1` (racemic) (as salt: hydrochloride) [Example 10, cis-3-(((4,4-dimethyl-4,5-dihydro-1H-imidazol-2-yl)thio)methyl)-4a,5,6,7,8,8a-hexahydrobenzo[4,5]imidazo[2,1-b]thiazole dihydrochloride], for which the melting point was in the range of 210 to 215 °C.
Turning to `CC1(C)CN=C(SCC2=CSC3=N[C@H]4CCCC(C4)N23)N1` (racemic) (as salt: hydrochloride) [Example 23, cis-3-(((5,5-dimethyl-4,5-dihydro-1H-imidazol-2-yl)thio)methyl)-6,7,8,9-tetrahydro-5H-5,9-methanothiazolo[3,2-a][1,3]diazocine dihydrochloride], the melting point lay within 240 to 245 °C.
The same measure for `CCCCC1CN=C(SCC2=CSC3=N[C@H]4CCCCC4N23)N1` (mixture of isomers) (as salt: hydrochloride) [Example 54, trans-3-(((5-butyl-4,5-dihydro-1H-imidazol-2-yl)thio)methyl)-4a,5,6,7,8,8a-hexahydrobenzo[4,5]imidazo[2,1-b]thiazole dihydrochloride]: 226 to 230 °C.
Consider `C1=C(CSC2=NCC(Cc3ccccc3)N2)N2C(=N[C@H]3CCCCC32)S1` (mixture of isomers) (as salt: hydrochloride) [Example 55, trans-3-(((5-benzyl-4,5-dihydro-1H-imidazol-2-yl)thio)methyl)-4a,5,6,7,8,8a-hexahydrobenzo[4,5]imidazo[2,1-b]thiazole dihydrochloride], for which the melting point lay within 137 to 142 °C.
